# Assay results taken from US9943528B2 (MAPREG, priority 2016, dated 2018).
# Where two headings read alike, the source gives them in different places.
# How the values were obtained:
# Wistar Kyoto (WKY) rats = assay: Forced swimming test (FST) in WKY rats; assay type: in vivo, rat; conditions: FIG. 6B
# Method: After a 6-day period of acclimatization, all experimental groups received daily successive subcutaneous (250 μl per rat) and intraperitoneal (1 ml/kg) injections. WI rats received injection of vehicle (sesame oil+saline) while WKY rats were randomly assigned to three experimental groups, as follow: KWY rats receiving only vehicle ([…]; rats received in parallel i.p. injections of saline), fluoxetine (10 mg/kg i.p., rats received in parallel s.c. injections of sesame oil) or ketamine (30 mg/kg, i.p.; rats received in parallel s.c. injections of sesame oil) (see FIG. 3).
# After, a 6-day period of acclimatization, the acute phase of treatment started for 4 days during behavioral tests were performed (FIG. 3). All animals were injected 1 h 30 before the starting of behavioral test.
# Rats were submitted to the forced swimming test (FST), according the procedure initially described by (Detke et al., 1995) and slightly modified by (Bianchi et al., 2002). Briefly, rats were individually placed into a Plexiglas cylinder (40 cm height, 20 cm diameter) containing 25 cm of water at 25±1° C., under 50 lux illumination. […] The pre-test and test sessions were recorded using a video camera placed above the cylinder for subsequent behavioral analysis. The immobility time (in sec) was blindly measured by two independent experimenters from recorded videos. […]
# [1] = target: T1, human progesterone receptor (PR) (Homo sapiens, UniProt P06401); assay: Test of progesterone receptor agonist activity (MMTV-luciferase transactivation in transfected HEK293T cells); assay type: cell-based; conditions: 24 hours, increasing amounts, FIG. 1
# T1 construct: expressed in transfected cells; host or cells: HEK293T
# T1 sequence (P06401 1-933): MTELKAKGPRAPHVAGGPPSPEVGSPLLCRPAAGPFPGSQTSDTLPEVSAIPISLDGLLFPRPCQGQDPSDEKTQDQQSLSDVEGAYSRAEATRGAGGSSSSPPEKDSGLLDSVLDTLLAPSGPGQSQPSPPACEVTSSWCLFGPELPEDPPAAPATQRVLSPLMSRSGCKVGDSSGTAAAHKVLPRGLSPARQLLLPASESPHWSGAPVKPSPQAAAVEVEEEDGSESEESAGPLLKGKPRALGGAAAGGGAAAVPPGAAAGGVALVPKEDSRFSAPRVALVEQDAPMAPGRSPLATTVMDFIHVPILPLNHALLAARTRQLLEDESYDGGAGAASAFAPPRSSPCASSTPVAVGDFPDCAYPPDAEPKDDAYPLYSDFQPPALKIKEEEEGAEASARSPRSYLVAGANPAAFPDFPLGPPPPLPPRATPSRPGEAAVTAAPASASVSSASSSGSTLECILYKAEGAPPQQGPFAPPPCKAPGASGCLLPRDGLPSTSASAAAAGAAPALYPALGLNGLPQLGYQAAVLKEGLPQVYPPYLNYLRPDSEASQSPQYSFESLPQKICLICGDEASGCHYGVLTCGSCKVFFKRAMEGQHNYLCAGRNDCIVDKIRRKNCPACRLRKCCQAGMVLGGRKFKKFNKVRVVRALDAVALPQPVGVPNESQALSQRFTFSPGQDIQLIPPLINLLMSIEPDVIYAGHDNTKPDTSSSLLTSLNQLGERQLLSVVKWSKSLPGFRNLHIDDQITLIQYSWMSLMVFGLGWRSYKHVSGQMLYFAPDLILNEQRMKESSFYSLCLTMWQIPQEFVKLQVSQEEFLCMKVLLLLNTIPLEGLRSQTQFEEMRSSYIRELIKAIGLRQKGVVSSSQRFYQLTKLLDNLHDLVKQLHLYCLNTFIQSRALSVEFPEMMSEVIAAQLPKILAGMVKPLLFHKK
# Method: (§1) The main experimental setting used is the following: HEK293T cells were transiently transfected, using calcium phosphate precipitation technology, with expression vectors pSG5hPR (which permits expression of human progesterone receptor (PR)), pFC31-luc (contains the luciferase gene under the control of the MMTV promoter, which is in turn activated by binding of a progestin to progesterone receptor) and pcbetagal (which permits expression of betagalactosidase), and cultured during 24 hours with increasing amounts of various compositions:
# Test of Progesterone Receptor Agonist Activity: Transfected Cells were Cultured with Increasing Amounts of Progesterone or 3-Methoxy-Pregnenolone
# [2] = target: T1, human progesterone receptor (PR); assay: Test of progesterone receptor antagonist activity (MMTV-luciferase transactivation with progesterone 1 nM); assay type: cell-based; conditions: HEK293T cells, progesterone 1 nM plus increasing amounts; FIG. 2
# Method: as §1
# Test of progesterone receptor […] activity: transfected cells were cultured with progesterone (1 nM) and increasing amounts of RU486 (a well-known progesterone receptor antagonist) or 3-methoxy-pregnenolone.
# With this setting, a compound with progesterone receptor antagonist activity competes with progesterone for the occupation of progesterone receptor and results in a progressive loss of transactivation activity when the amount of this compound is increased compared to progesterone.
# [3] = test system: social-isolated adult male Sprague Dawley rats; conditions: cited from earlier work
# [4] = test system: adult male Sprague Dawley rats; conditions: U.S. Pat. No. 8,334,278, cited from earlier work
# [5] = test system: adult male Sprague Dawley rats; conditions: cited from earlier work
# Noradrenergic α1 = assay: CNS receptor binding assay, α1; conditions: MAP4343 10 μM; [3H] prazosin; rat cerebral cortex
# From the text: MAP4343 has been screened for in vitro affinity to 80 different CNS neurotransmitters receptors using various validated binding assays.
compound,measurement,setting,value
"CO[C@H]1CC[C@@]2(C)C(=CC[C@H]3[C@@H]4CC[C@H](C(C)=O)[C@@]4(C)CC[C@@H]32)C1 [MAP4343, 3β-methoxy-pregna-5-ene-20-one]","immobility time in FST, dose-ranging effect","Wistar Kyoto (WKY) rats; MAP4343 1, 5, 10 and 15 mg/kg",dose-dependent decrease of immobility time
same,"immobility time in FST, change vs WKY receiving vehicle alone","Wistar Kyoto (WKY) rats; dose-ranging, MAP4343 15 mg/kg",−25%
same,"progesterone receptor agonist activity (transactivation, expression of luciferase)",[1],does not have progesterone receptor agonist activity
same,progesterone receptor antagonist activity (loss of transactivation),[2],weak progesterone receptor antagonist
same,anxiety in the EPM test,[3]; acute phase (2 days of daily injections),not in the acute phase
same,anxiety in the EPM test,[3]; subchronic phase (8 days of daily injections),recovered increased anxiety
same,memory retention in NOR,[4]; naïve adult male Sprague Dawley rats,increases memory retention
same,memory deficit in the NOR test,[4]; social-isolated adult male Sprague Dawley rats,induces recovery of memory deficit
same,immobility in the forced swimming test,"[5]; naïve adult male Sprague Dawley rats, U.S. Pat. No. 8,334,278",decreases immobility
same,immobility in the forced swimming test,"[5]; social-isolated adult male Sprague Dawley rats, Bianchi and Baulieu, 2012",decreased immobility
same,% Inhibition of control specific binding,Noradrenergic α1,4%
